According to patent US8653004B2, “Actives-comprising polymer networks, processes for producing them, and their use” (priority 2007, dated 2014):
Values after ≈ are worked out from the molar mass of the structure shown.

Test: physchem
Assay type: physicochemical
Details: water

## CCNc1nc(NC(C)(C)C)nc(SC)n1 [terbutryn, N2-tert-butyl-N4-ethyl-6-methylthio-1,3,5-triazine-2,4-diamine]
  solubility: ~20 µg/mL (≈ 82.9 µM)
